The experiment deals with production of CD69 by B lymphocytes in human whole blood activated by crosslinking surface IgM. As to the kind of experiment: CD69 human whole blood assay (Example 903), FACS. The experiment is classed as cell-based. Particulars: Homo sapiens, Lymphocyte, B lymphocytes activated with goat F(ab')2 anti-human IgM, read-out: CD69 Hu Blood FACS IC50. An excerpt: There is good evidence that B-cells play a key role in the pathogenesis of autoimmune and/or inflammatory disease. Protein-based therapeutics that deplete B cells such as Rituxan are effective against autoantibody-driven inflammatory diseases such as rheumatoid arthritis (Rastetter et al. (2004) Annu Rev Med 55:477). CD69 is the early activation marker in leukocytes including T cells, thymocytes, B cells, NK cells, neutrophils, and eosinophils. The CD69 human whole blood assay (Example 903) determines the ability of compounds to inhibit the production of CD69 by B lymphocytes in human whole blood activated by crosslinking surface IgM with goat F(ab′)2 anti-human IgM.

IC50 data for 25 compounds are collected here from patent US8653089B2, “Heterocyclic compounds and methods of use” (F. Hoffmann-La Roche AG, priority 2011, dated 2014).

pIC50: −log10 of the molar value.

In general, pIC50 refers to the negative decadic logarithm of the IC50, by convention in mol/L. As to `C[C@H](Nc1ncnc(N)c1C#N)c1nc2ccc(F)c(C#N)c2n1-c1cncc(F)c1` [Example 347, 2-[(S)-1-(6-Amino-5-cyano-pyrimidin-4-ylamino)-ethyl]-5-fluoro-3-(5-fluoro-pyridin-3-yl)-3H-benzoimidazole-4-carbonitrile], the negative-log IC50 (pIC50) is 6.80. Consider `C[C@H](Nc1ncnc2[nH]cnc12)c1nc2ccc(F)c(Br)c2n1-c1ccccc1` [Example 178, [(S)-1-(7-Bromo-6-fluoro-1-phenyl-1H-benzoimidazol-2-yl)-ethyl]-(9H-purin-6-yl)-amine], for which the pIC50 was 7.09. The result for `C[C@H](Nc1ncnc(N)c1C#N)c1nc2ccc(F)cc2n1-c1ccnn1C` [Example 416, 4-amino-6-[[(1S)-1-[6-fluoro-1-(2-methylpyrazol-3-yl)benzimidazol-2-yl]ethyl]amino]pyrimidine-5-carbonitrile] reads 7.17. For the compound `C[C@H](Nc1ncnc2[nH]cnc12)c1nc2ccc(F)cc2n1[C@@H]1CCCN(CCO)C1` [Example 256, 2-((R)-3-{6-Fluoro-2-[(S)-1-(9H-purin-6-ylamino)-ethyl]-benzoimidazol-1-yl}-piperidin-1-yl)-ethanol], the pIC50 was 7.17.

Regarding `CCC(Nc1ncnc2nc[nH]c12)c1nc2ccc(F)cc2n1-c1ccccc1` (stereo not shown) [Example 212, [1-(6-Fluoro-1-phenyl-1H-benzoimidazol-2-yl)-propyl]-(7H-purin-6-yl)-amine], the pIC50 was 7.26. The result for `Cc1c(F)ccc2nc([C@H](C)Nc3ncnc(N)c3C#N)n(-c3ccccn3)c12` [Example 289, 4-Amino-6-[(S)-1-(6-fluoro-7-methyl-1-pyridin-2-yl-1H-benzoimidazol-2-yl)-ethylamino]-pyrimidine-5-carbonitrile] reads 7.32. Regarding `C[C@H](Nc1ncncc1C#N)c1nc2ccc(F)cc2n1-c1ccccc1` [Example 316, 4-[(S)-1-(6-Fluoro-1-phenyl-1H-benzoimidazol-2-yl)-ethylamino]-pyrimidine-5-carbonitrile], the pIC50 was 6.32. Next, `OCC(Nc1ncnc2nc[nH]c12)c1nc2ccc(F)cc2n1-c1ccccc1` (stereo not shown) [Example 224, 2-(6-Fluoro-1-phenyl-1H-benzoimidazol-2-yl)-2-(7H-purin-6-ylamino)-ethanol]: 6.89. In the case of `CC(Nc1ncnc2[nH]cnc12)c1nc2ccc(F)c(C(=O)N3CCOCC3)c2n1-c1ccccc1` (stereo not shown) [Example 203, {5-Fluoro-3-phenyl-2-[1-(9H-purin-6-ylamino)-ethyl]-3H-benzoimidazol-4-yl}-morpholin-4-yl-methanone], the pIC50 was 8.55.

As to `COc1c(F)ccc2nc([C@H](C)Nc3ncnc(N)c3C#N)n(-c3ccccc3)c12` [Example 339, 4-Amino-6-[(S)-1-(6-fluoro-7-methoxy-1-phenyl-1H-benzoimidazol-2-yl)-ethylamino]-pyrimidine-5-carbonitrile], the negative logarithm of the IC50 (pIC50) is 8.31. In the case of `C[C@H](Nc1ncnc2[nH]cnc12)c1nc2ccc(F)c(C3CC3)c2n1-c1ccccn1` [Example 274, [(S)-1-(7-Cyclopropyl-6-fluoro-1-pyridin-2-yl-1H-benzoimidazol-2-yl)-ethyl]-(9H-purin-6-yl)-amine], the pIC50 is 7.57. Next, `C[C@H](Nc1ncnc(N)c1C#N)c1nc2ccc(F)cc2n1-c1cncc(F)c1` [Example 277, 4-Amino-6-{(S)-1-[6-fluoro-1-(5-fluoro-pyridin-3-yl)-1H-benzoimidazol-2-yl]-ethylamino}-pyrimidine-5-carbonitrile]: 7.74; `C[C@H](Nc1ncnn2ccnc12)c1nc2ccc(F)cc2n1-c1ccccc1` [Example 321, [(S)-1-(6-Fluoro-1-phenyl-1H-benzoimidazol-2-yl)-ethyl]-imidazo[2,1-f][1,2,4]triazin-4-yl-amine]: 7.73; `C[C@H](Nc1ncnc(N)c1C#N)c1nc2ccc(F)cc2n1-c1ccccc1` [Example 246, 4-Amino-6-[(S)-1-(6-fluoro-1-phenyl-1H-benzoimidazol-2-yl)-ethylamino]-pyrimidine-5-carbonitrile]: 7.78. The result for `C[C@H](Nc1ncnc(N)c1C#N)c1nc2ccc(F)c(-c3ccccn3)c2n1C` [Example 411, 4-amino-6-[[(1S)-1-[6-fluoro-1-methyl-7-(2-pyridyl)benzimidazol-2-yl]ethyl]amino]pyrimidine-5-carbonitrile] reads 6.05. Turning to `C[C@H](Nc1ncnc2[nH]cnc12)c1nc2ccc(F)cc2n1-c1cccc(F)c1` [Example 185, {(S)-1-[6-Fluoro-1-(3-fluoro-phenyl)-1H-benzoimidazol-2-yl]-ethyl}-(9H-purin-6-yl)-amine], the pIC50 was 7.28. The result for `CC[C@H](Nc1ncnc2[nH]cnc12)c1nc2ccc(F)c(C#N)c2n1-c1ccccc1` [Example 244, 5-Fluoro-3-phenyl-2-[(S)-1-(9H-purin-6-ylamino)-propyl]-3H-benzoimidazole-4-carbonitrile] reads 7.10.

Turning to `Cc1c(F)ccc2nc([C@H](C)Nc3ncnc4[nH]cnc34)n(-c3ccccc3)c12` [Example 183, [(S)-1-(6-Fluoro-7-methyl-1-phenyl-1H-benzoimidazol-2-yl)-ethyl]-(9H-purin-6-yl)-amine], the pIC50 is 7.58. The result for `C[C@H](Nc1ncnc2[nH]cnc12)c1nc2ccc(F)cc2n1-c1ccncn1` [Example 332, [(S)-1-(6-Fluoro-1-pyrimidin-4-yl-1H-benzoimidazol-2-yl)-ethyl]-(9H-purin-6-yl)-amine] reads 7.09; that for `Fc1ccc2nc(CNc3ncnc4[nH]cnc34)n(-c3ccccc3)c2c1` [Example 443, (6-Fluoro-1-phenyl-1H-benzoimidazol-2-ylmethyl)-(9H-purin-6-yl)amine], < 5.30; that for `C[C@H](Nc1ncnc2[nH]cnc12)c1nc2cccc(C#N)c2n1-c1ccccc1` [Example 279, 3-Phenyl-2-[(S)-1-(9H-purin-6-ylamino)-ethyl]-3H-benzoimidazole-4-carbonitrile], 6.74. Turning to `C[C@H](Nc1ncnc2[nH]cnc12)c1nc2ccc(F)cc2n1-c1ccnn1C` [Example 417, N-[(1S)-1-[6-fluoro-1-(2-methylpyrazol-3-yl)benzimidazol-2-yl]ethyl]-9H-purin-6-amine], the pIC50 is 6.85. For the compound `C[C@H](Nc1ncnc2[nH]cnc12)c1nc2ccc(F)cc2n1[C@H]1CCCN(CCO)C1` [Example 278, 2-((S)-3-{6-Fluoro-2-[(S)-1-(9H-purin-6-ylamino)-ethyl]-benzoimidazol-1-yl}-piperidin-1-yl)-ethanol], the negative-log IC50 (pIC50) was 7.78.

Turning to `C[C@H](Nc1ncnc(N)c1C#N)c1nc2ccc(F)c(-c3ccccc3)c2n1C1CC1` [Example 415, 4-amino-6-[[(1S)-1-(1-cyclopropyl-6-fluoro-7-phenyl-benzimidazol-2-yl)ethyl]amino]pyrimidine-5-carbonitrile], the pIC50 was 6.65.

Consider `N#Cc1c(N)ncnc1NCc1nc2ccc(F)cc2n1-c1ccccc1` [Example 371, 4-amino-6-((6-fluoro-1-phenyl-1H-benzo[d]imidazol-2-yl)methylamino)pyrimidine-5-carbonitrile], for which the pIC50 was 6.29.
